Results published in patent publication US12157741B2, “Macrocyclic inhibitors of DYRK1A” (DANA-FARBER CANCER INSTITUTE, INC., priority 2018, dated 2024).
Like-named read-outs stand apart in the source and are kept apart here.

How the values were obtained:
Assay type in all cases: binding
various enzymes [1] = target: various enzymes (Homo sapiens, UniProt O15530); settings: compound 1 uM
Experimental: (§1) Ambit profiling was conducted in accordance with the manufacturer's instructions.

various enzymes [2] = target: various enzymes (Homo sapiens, UniProt O75116); settings: compound 1 uM
Experimental: as §1

various enzymes [3] = target: various enzymes (Homo sapiens, UniProt O94921); settings: compound 1 uM
Experimental: as §1

various enzymes [4] = target: various enzymes (Homo sapiens, UniProt P00533, G719S)
Experimental: as §1

various enzymes [5] = target: various enzymes (Homo sapiens, UniProt P06213); settings: compound 1 uM
Experimental: as §1

various enzymes [6] = target: various enzymes (Homo sapiens, UniProt P11309); settings: compound 1 uM
Experimental: as §1

various enzymes [7] = target: various enzymes (Homo sapiens, UniProt P11362); settings: compound 1 uM
Experimental: as §1

various enzymes [8] = target: various enzymes (Homo sapiens, UniProt P19784); settings: compound 1 uM
Experimental: as §1

various enzymes [9] = target: various enzymes (Homo sapiens, UniProt P21127); settings: compound 1 uM
Experimental: as §1

various enzymes [10] = target: various enzymes (Homo sapiens, UniProt P23458); settings: compound 1 uM
Experimental: as §1

various enzymes [11] = target: various enzymes (Homo sapiens, UniProt P29322); settings: compound 1 uM
Experimental: as §1

various enzymes [12] = target: various enzymes (Homo sapiens, UniProt P36897); settings: compound 1 uM
Experimental: as §1

various enzymes [13] = target: various enzymes (Homo sapiens, UniProt P42336, H1047L)
Experimental: as §1

various enzymes [14] = target: various enzymes (Homo sapiens, UniProt P42680); settings: compound 1 uM
Experimental: as §1

various enzymes [15] = target: various enzymes (Homo sapiens, UniProt P50613); settings: compound 1 uM
Experimental: as §1

various enzymes [16] = target: various enzymes (Homo sapiens, UniProt P51812); settings: compound 1 uM
Experimental: as §1

various enzymes [17] = target: various enzymes (Homo sapiens, UniProt P52333); settings: compound 1 uM
Experimental: as §1

various enzymes [18] = target: various enzymes (Homo sapiens, UniProt P53671); settings: compound 1 uM
Experimental: as §1

various enzymes [19] = target: various enzymes (Homo sapiens, UniProt P53779); settings: compound 1 uM
Experimental: as §1

various enzymes [20] = target: various enzymes (Homo sapiens, UniProt P54646); settings: compound 1 uM
Experimental: as §1

various enzymes [21] = target: various enzymes (Homo sapiens, UniProt P54756); settings: compound 1 uM
Experimental: as §1

various enzymes [22] = target: various enzymes (Homo sapiens, UniProt Q07912); settings: compound 1 uM
Experimental: as §1

various enzymes [23] = target: various enzymes (Homo sapiens, UniProt Q09013); settings: compound 1 uM
Experimental: as §1

various enzymes [24] = target: various enzymes (Homo sapiens, UniProt Q13554); settings: compound 1 uM
Experimental: as §1

various enzymes [25] = target: various enzymes (Homo sapiens, UniProt Q13976); settings: compound 1 uM
Experimental: as §1

various enzymes [26] = target: various enzymes (Homo sapiens, UniProt Q15208); settings: compound 1 uM
Experimental: as §1

various enzymes [27] = target: various enzymes (Homo sapiens, UniProt Q15418); settings: compound 1 uM
Experimental: as §1

various enzymes [28] = target: various enzymes (Homo sapiens, UniProt Q15746); settings: compound 1 uM
Experimental: as §1

various enzymes [29] = target: various enzymes (Homo sapiens, UniProt Q16816); settings: compound 1 uM
Experimental: as §1

various enzymes [30] = target: T1, various enzymes (Homo sapiens, UniProt Q6PHR2); settings: compound 1 uM
T1 sequence (Q6PHR2 1-472): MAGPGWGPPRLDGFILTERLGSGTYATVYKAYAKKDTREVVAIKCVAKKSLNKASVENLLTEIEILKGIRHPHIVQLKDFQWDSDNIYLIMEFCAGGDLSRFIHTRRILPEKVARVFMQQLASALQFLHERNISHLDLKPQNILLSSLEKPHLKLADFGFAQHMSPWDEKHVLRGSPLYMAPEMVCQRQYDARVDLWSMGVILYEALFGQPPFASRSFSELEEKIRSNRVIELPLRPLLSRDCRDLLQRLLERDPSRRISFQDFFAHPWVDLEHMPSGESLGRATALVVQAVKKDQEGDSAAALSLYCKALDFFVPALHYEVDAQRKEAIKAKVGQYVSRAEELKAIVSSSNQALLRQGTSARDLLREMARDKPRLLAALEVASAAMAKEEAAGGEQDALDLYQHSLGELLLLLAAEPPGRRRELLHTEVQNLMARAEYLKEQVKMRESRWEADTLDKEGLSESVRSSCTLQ
Experimental: as §1

various enzymes [31] = target: various enzymes (Homo sapiens, UniProt Q86V86); settings: compound 1 uM
Experimental: as §1

various enzymes [32] = target: various enzymes (Homo sapiens, UniProt Q8WXR4); settings: compound 1 uM
Experimental: as §1

various enzymes [33] = target: various enzymes (Homo sapiens, UniProt Q9H4A3); settings: compound 1 uM
Experimental: as §1

various enzymes [34] = target: various enzymes (Homo sapiens, UniProt Q9P0L2); settings: compound 1 uM
Experimental: as §1

various enzymes [35] = target: various enzymes (Homo sapiens, UniProt Q9UPE1); settings: compound 1 uM
Experimental: as §1

various enzymes [36] = target: various enzymes (Homo sapiens, UniProt Q9UPZ9); settings: compound 1 uM
Experimental: as §1

various enzymes [37] = target: various enzymes (Homo sapiens, UniProt Q9Y463); settings: compound 1 uM
Experimental: as §1

Chain of various enzymes (Homo sapiens, UniProt P51812) (P51812 whole entry): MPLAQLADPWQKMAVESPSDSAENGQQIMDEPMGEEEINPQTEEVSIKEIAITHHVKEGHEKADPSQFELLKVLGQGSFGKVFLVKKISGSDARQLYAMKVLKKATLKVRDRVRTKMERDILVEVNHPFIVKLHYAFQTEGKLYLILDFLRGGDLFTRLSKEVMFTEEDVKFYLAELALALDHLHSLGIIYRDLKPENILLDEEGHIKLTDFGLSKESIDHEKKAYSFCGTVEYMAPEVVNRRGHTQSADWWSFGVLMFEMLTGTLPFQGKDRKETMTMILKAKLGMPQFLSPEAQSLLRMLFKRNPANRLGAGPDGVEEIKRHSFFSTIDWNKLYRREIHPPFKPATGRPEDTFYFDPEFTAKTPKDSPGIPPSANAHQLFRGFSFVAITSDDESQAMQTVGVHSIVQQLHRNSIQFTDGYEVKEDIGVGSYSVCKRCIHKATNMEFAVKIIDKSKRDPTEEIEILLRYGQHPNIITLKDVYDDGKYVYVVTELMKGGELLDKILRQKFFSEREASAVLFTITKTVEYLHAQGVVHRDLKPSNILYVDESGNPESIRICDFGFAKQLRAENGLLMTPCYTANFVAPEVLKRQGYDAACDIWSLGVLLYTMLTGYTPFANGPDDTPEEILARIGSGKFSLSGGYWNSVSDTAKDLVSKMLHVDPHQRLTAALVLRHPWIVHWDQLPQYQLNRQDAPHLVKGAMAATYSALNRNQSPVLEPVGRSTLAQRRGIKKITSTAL
Chain of various enzymes (Homo sapiens, UniProt Q15418) (Q15418 whole entry): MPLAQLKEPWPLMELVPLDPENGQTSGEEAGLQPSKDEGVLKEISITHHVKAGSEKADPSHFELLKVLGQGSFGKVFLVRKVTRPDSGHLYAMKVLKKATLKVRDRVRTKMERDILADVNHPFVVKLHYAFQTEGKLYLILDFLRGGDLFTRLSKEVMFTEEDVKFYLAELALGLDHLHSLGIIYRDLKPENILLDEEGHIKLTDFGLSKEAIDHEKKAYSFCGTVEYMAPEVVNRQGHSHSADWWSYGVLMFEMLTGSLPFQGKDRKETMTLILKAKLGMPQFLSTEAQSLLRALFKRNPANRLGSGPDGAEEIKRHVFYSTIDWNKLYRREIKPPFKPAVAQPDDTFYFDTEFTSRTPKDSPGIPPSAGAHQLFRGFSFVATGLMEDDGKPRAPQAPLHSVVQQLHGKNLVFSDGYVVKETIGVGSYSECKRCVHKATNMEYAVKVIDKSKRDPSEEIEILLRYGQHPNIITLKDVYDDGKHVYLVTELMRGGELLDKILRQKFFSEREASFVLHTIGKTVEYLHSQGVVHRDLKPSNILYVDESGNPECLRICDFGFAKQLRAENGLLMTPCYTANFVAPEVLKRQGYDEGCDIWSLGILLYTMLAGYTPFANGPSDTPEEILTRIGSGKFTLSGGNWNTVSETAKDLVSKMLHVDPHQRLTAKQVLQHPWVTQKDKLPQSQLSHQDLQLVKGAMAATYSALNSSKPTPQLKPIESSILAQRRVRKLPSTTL
Chain of various enzymes (Homo sapiens, UniProt P23458) (P23458 whole entry): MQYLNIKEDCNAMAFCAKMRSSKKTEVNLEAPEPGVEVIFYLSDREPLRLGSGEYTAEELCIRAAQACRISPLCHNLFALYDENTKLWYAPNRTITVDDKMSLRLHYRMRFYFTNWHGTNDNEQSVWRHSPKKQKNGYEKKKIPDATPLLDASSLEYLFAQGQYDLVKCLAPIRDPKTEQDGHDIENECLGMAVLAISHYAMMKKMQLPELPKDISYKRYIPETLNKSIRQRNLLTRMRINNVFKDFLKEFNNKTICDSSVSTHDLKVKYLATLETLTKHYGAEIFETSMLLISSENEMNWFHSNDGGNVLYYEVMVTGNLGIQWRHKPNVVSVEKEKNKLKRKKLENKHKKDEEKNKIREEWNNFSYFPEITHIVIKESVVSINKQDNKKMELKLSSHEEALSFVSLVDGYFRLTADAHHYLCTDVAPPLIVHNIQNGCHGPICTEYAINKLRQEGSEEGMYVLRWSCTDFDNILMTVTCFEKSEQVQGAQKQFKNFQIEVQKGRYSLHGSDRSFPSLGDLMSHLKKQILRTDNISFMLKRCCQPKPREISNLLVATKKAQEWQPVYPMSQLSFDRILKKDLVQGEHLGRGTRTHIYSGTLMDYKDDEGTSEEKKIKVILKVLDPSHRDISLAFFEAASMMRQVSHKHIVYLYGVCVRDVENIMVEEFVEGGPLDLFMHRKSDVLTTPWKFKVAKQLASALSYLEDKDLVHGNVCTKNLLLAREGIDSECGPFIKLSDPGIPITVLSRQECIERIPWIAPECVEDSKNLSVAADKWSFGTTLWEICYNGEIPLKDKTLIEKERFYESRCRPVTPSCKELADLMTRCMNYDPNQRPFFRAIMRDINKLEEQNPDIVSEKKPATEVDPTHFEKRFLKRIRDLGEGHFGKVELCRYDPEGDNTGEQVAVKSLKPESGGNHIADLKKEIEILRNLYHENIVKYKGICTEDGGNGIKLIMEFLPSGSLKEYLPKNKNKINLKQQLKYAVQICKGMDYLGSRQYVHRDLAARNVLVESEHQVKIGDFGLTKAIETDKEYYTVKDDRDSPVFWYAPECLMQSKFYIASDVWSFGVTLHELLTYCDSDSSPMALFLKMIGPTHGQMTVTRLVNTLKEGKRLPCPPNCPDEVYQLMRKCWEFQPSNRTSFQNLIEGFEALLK
Chain of various enzymes (Homo sapiens, UniProt P36897) (P36897 34-503): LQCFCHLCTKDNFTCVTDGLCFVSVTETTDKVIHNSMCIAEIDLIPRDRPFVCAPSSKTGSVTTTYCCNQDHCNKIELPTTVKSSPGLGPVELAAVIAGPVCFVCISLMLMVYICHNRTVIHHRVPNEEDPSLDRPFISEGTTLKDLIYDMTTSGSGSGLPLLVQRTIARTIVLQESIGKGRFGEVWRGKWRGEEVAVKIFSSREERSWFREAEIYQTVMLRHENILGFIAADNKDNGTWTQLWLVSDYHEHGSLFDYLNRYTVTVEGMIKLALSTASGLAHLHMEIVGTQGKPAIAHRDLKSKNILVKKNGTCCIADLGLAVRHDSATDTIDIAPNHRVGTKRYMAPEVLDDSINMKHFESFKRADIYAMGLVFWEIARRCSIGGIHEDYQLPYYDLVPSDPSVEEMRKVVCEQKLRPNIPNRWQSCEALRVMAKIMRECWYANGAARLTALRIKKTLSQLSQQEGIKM
Chain of various enzymes (Homo sapiens, UniProt Q9UPZ9) (Q9UPZ9 whole entry): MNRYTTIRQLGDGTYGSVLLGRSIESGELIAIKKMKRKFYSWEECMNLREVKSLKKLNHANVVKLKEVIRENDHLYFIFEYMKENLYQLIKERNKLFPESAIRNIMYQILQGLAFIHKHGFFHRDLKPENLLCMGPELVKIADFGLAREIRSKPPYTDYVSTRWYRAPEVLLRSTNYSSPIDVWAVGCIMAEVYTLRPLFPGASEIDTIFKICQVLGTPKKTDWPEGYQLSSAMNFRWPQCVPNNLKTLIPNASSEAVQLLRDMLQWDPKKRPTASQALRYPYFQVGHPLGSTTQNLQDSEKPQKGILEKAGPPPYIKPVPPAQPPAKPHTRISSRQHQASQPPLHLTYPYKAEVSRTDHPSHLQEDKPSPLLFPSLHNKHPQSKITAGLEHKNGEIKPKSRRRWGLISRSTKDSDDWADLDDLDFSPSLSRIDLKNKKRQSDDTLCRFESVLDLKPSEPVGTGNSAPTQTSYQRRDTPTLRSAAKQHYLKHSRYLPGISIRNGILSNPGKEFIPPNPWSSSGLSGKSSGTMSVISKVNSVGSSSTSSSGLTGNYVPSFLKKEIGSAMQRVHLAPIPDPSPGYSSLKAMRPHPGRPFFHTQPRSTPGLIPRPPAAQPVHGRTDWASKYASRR
Chain of various enzymes (Homo sapiens, UniProt Q16816) (Q16816 whole entry): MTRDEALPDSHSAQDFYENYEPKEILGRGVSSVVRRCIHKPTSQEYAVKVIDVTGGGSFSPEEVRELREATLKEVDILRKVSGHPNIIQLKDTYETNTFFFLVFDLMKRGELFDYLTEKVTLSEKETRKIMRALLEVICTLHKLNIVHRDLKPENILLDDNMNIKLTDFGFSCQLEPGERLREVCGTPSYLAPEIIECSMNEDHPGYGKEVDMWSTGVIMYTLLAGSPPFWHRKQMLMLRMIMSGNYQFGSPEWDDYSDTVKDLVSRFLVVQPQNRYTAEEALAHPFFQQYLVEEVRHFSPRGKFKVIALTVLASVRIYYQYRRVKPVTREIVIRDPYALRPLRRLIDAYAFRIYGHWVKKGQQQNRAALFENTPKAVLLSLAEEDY
Chain of various enzymes (Homo sapiens, UniProt P54646) (P54646 whole entry): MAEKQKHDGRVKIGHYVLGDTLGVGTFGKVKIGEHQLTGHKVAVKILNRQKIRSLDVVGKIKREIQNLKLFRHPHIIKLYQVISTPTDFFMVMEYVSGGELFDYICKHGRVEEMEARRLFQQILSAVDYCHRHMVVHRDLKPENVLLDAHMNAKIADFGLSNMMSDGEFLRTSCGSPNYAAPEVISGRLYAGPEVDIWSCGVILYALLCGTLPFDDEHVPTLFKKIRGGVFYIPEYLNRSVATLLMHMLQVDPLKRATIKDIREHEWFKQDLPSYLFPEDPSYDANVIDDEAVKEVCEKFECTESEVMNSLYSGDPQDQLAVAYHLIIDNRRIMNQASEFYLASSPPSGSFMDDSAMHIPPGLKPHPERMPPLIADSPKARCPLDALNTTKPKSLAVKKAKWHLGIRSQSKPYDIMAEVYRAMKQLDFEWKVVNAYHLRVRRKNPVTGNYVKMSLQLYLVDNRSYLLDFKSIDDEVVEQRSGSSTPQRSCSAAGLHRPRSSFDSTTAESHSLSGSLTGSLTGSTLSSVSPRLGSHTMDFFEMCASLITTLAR
Chain of various enzymes (Homo sapiens, UniProt P19784) (P19784 whole entry): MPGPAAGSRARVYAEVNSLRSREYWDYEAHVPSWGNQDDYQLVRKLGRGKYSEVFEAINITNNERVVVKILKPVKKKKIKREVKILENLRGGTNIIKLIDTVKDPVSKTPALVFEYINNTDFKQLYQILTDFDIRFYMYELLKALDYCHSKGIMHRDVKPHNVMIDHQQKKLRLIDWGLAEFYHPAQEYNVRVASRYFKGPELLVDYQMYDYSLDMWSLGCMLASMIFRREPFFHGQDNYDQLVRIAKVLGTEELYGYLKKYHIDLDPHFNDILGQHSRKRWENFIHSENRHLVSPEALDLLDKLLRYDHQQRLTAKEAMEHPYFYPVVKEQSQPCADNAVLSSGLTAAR

Compound | Ambit profiling: PDPK1 (various enzymes [1]) | Ambit profiling: ROCK2 (various enzymes [2]) | Ambit profiling: PFTK1 (various enzymes [3]) | Ambit profiling: INSR (various enzymes [5]) | Ambit profiling: PIM1 (various enzymes [6]) | Ambit profiling: FGFR1 (various enzymes [7]) | Ambit profiling: CSNK2A2 (various enzymes [8]) | Ambit profiling: CDC2L1 (various enzymes [9]) | Ambit profiling: JAK1(JH1domain-catalytic) (various enzymes [10]) | Ambit profiling: JAK1(JH2domain-pseudokinase) (various enzymes [10]) | Ambit profiling: EPHA8 (various enzymes [11]) | Ambit profiling: TGFBR1 (various enzymes [12]) | Ambit profiling: TEC (various enzymes [14]) | Ambit profiling: CDK7 (various enzymes [15]) | Ambit profiling: RSK2(Kin.Dom.1-N-terminal) (various enzymes [16]) | Ambit profiling: RSK2(Kin.Dom.2-C-terminal) (various enzymes [16]) | Ambit profiling: JAK3(JH1domain-catalytic) (various enzymes [17]) | Ambit profiling: LIMK2 (various enzymes [18]) | Ambit profiling: JNK3 (various enzymes [19]) | Ambit profiling: AMPK-alpha2 (various enzymes [20]) | further results
CC(C)N1Cc2nn(C)cc2-c2cnc3[nH]cc(c3c2)-c2cn(nc2C(F)(F)F)CCCC1=O [Compound 45, (Z)-5-isopropyl-31-methyl-13-(trifluoromethyl)-11H,21H,31H-5-aza-2(3,5)-pyrrolo[2,3-b]pyridina-1(4,1),3(4,3)-dipyrazolacyclononaphan-6-one] | 98 | 100 | 14 | 43 | 75 | 2.5 | 1.8 | 100 | 36 | 65 | 8.7 | 87 | 97 | 13 | 0.9 | 100 | 0 | 100 | 29 | 87 | Ambit profiling: EGFR(G719S) (various enzymes [4]; compound 1 uM): 41; Ambit profiling: PIK3CA(H1047L) (various enzymes [13]; compound 1 uM): 100; Ambit profiling: EPHA5 (various enzymes [21]): 92; Ambit profiling: TNK2 (various enzymes [22]): 11; Ambit profiling: DMPK (various enzymes [23]): 20; Ambit profiling: CAMK2B (various enzymes [24]): 65; Ambit profiling: PRKG1 (various enzymes [25]): 100; Ambit profiling: NDR1 (various enzymes [26]): 59; Ambit profiling: RSK1(Kin.Dom.1-N-terminal) (various enzymes [27]): 17; Ambit profiling: RSK1(Kin.Dom.2-C-terminal) (various enzymes [27]): 85; Ambit profiling: MYLK (various enzymes [28]): 37; Ambit profiling: PHKG1 (various enzymes [29]): 34; Ambit profiling: ULK3 (various enzymes [30]): 30; Ambit profiling: PIM3 (various enzymes [31]): 94; Ambit profiling: MYO3B (various enzymes [32]): 6.7; Ambit profiling: WNK1 (various enzymes [33]): 100; Ambit profiling: MARK1 (various enzymes [34]): 33; Ambit profiling: SRPK3 (various enzymes [35]): 13; Ambit profiling: ICK (various enzymes [36]): 0.95; Ambit profiling: DYRK18 (various enzymes [37]): 0.55
COc1c2c(nn1C)CN(C(C)C)C(=O)CCCn1cc(c(C(F)(F)F)n1)-c1c[nH]c3ncc-2cc13 [Compound 50, (Z)-5-isopropyl-35-methoxy-31-methyl-13-(trifluoromethyl)-11H,21H,31H-5-aza-2(3,5)-pyrrolo[2,3-b]pyridina-1(4,1),3(4,3)-dipyrazolacyclononaphan-6-one] | 100 | 67 | 60 | 22 | 77 | 5.8 | 8.7 | 73 | 100 | 81 | 26 | 36 | 32 | 6 | 1.2 | 100 | 0 | 64 | 8.8 | 57 | Ambit profiling: EGFR(G719S) (various enzymes [4]): 41; Ambit profiling: PIK3CA(H1047L) (various enzymes [13]): 83; Ambit profiling: EPHA5 (various enzymes [21]): 67; Ambit profiling: TNK2 (various enzymes [22]): 1.9; Ambit profiling: DMPK (various enzymes [23]): 100; Ambit profiling: CAMK2B (various enzymes [24]): 46; Ambit profiling: PRKG1 (various enzymes [25]): 100; Ambit profiling: NDR1 (various enzymes [26]): 64; Ambit profiling: RSK1(Kin.Dom.1-N-terminal) (various enzymes [27]): 3.8; Ambit profiling: RSK1(Kin.Dom.2-C-terminal) (various enzymes [27]): 81; Ambit profiling: MYLK (various enzymes [28]): 14; Ambit profiling: PHKG1 (various enzymes [29]): 34; Ambit profiling: ULK3 (various enzymes [30]): 73; Ambit profiling: PIM3 (various enzymes [31]): 91; Ambit profiling: MYO3B (various enzymes [32]): 9; Ambit profiling: WNK1 (various enzymes [33]): 100; Ambit profiling: MARK1 (various enzymes [34]): 39; Ambit profiling: SRPK3 (various enzymes [35]): 38; Ambit profiling: ICK (various enzymes [36]): 12; Ambit profiling: DYRK1B (various enzymes [37]): 5.2
